For data set [1], the system named is P388/CPT45 cells. The experiment in a line: Cytotoxicity in camptothecin-resistant P388/CPT45 cells relative to parental P388 (selectivity index R/S). It is filed as cell-based, murine. The following applies: IC50 P388/CPT45 cells divided by IC50 parental P388 cells. The source says: The present invention includes fluoro sugar and other sugar derivatives of indolopyrrolocarbazoles of formula (I), as defined above. […] Most importantly, the instant invention describes topo I active compounds, related to compounds disclosed in WO 98/07433 and co-pending U.S. application, Ser. No. 08/914566 (both herein incorporated by reference), which display a surprising and unexpected selectivity index when evaluated for cytotoxicity in certain cell lines which express normal levels of topo I required for cell proliferation, compared with cell lines that are deficient in or underexpress topo I. Said “selectivity index” (R/S) was generated by dividing the cytotoxic IC50 of a particular compound against a camptothecin-resistant murine leukemia cell line, P388/CPT45, by the IC50 generated when using the parent P388 cell line. […] A level of selectivity was judged to be advantageous and beneficial in, for example, modulating potential undesirable side effects and/or toxicity. The compounds of the present invention were selected from compounds generically disclosed in WO 98/07433 and co-pending U.S. patent application, Ser. No. 08/914566, on the basis of an unexpected and unpredictable selectivity index (see Table I and II). […] Simple changes in the substitution of the sugar portion or the indolopyrrolocarbazole portion of the present invention will change the selectivity. This change in selectivity is not predictable by one skilled in the art.
(§1) Similarly, P338 murine leukemia cells were maintained in RPMI 1640 supplemented with 20% fetal bovine serum and 10 μM 2-mercaptoethanol. A camptothecin resistant subline, P388/CPT45, was selected for resistance to camptothecin and is over 1000-fold resistant to this compound (Woessner, et al. Oncol. Res. 1992, 4, 481-488).
(§2) In vitro cytotoxicity was assessed in tissue culture cells by MTS (3-(4,5-dimethylthiazol-2-yl)-5-(3-carboxymethoxyphenyl)-2-(4-sulphenyl)-2H-tetrazolium, inner salt) assay (Riss and Moravec, Mol. Biol. Cell 1992, 3 (Suppl.), 184a). Cells were plated at 8,000 cell/well in 96 well microtiter plates and 24 hours later serial dilutions of the test compounds were made and added to the cells. The cells were incubated at 37° C. for 72 hours, at which time the tetrazolium dye, MTS at 333 μg/ml (final concentration), in combination with the electron coupling agent phenazine methosulfate at 25 μM (final concentration) was added. A dehydrogenase enzyme in live cells reduces the MTS to a form that absorbs light at 492 nm which can be quantitated spectrophotometrically. The greater the absorbance the greater the number of live cells. The results are expressed as an IC50, which is the drug concentration required to inhibit cell proliferation (i.e., absorbance at 492 nm) to 50% of that of untreated control cells.
The selectivity index (R/S) is defined as the ratio obtained by dividing the IC50 value obtained using P388/CPT45 cells by that obtained using parental P388 cells. The R/S ratios used to determine the relative topo I selectivity of selected compounds of this invention are shown below in Table I.

Data set [2] deals with P388 murine leukemia cells. The experiment in a line: In vitro cell-based cytotoxicity, parental P388 cells. The following applies: Mus musculus, 72 h, median cytotoxic concentration, 3 days continuous exposure. On the procedure: The proliferation inhibition activity against the murine P388 cell line was measured as follows. Evaluation of a soluble tetrazolium/formazan assay for cell growth and drug sensitivity in culture, using human and other tumor cell lines, was done according to the procedure described in Cancer Res. 1988, 48, 4827-4833. Cells were plated at 4000 cells/well in 96 well microtiter plates and 24 h later drugs were added and serially diluted. The cells were incubated at 37° C. for 72 h, at which time a tetrazolium dye, XTT, containing phenazine methosulfate was added. A dehydrogenase enzyme in live cells reduced the XTT to a form that absorbs light at 450 nm, which could be quantitated spectrophotometrically. The greater the absorbance the greater the number of live cells. The results are expressed as an IC50, which is the drug concentration required to inhibit cell proliferation (i.e., absorbance at 450 nm) to 50% of that of untreated control cells.
as §1, §2
The cytotoxic activity for certain compounds of the present invention, in both parental P388 and the camptothecin-resistant P388/CPT45 cell lines are shown below in Table I.

Data set [3] addresses T1, purified human topoisomerase I (Homo sapiens, UniProt P11387).
T1 construct: purchased Topogen
T1 sequence (P11387 1-765): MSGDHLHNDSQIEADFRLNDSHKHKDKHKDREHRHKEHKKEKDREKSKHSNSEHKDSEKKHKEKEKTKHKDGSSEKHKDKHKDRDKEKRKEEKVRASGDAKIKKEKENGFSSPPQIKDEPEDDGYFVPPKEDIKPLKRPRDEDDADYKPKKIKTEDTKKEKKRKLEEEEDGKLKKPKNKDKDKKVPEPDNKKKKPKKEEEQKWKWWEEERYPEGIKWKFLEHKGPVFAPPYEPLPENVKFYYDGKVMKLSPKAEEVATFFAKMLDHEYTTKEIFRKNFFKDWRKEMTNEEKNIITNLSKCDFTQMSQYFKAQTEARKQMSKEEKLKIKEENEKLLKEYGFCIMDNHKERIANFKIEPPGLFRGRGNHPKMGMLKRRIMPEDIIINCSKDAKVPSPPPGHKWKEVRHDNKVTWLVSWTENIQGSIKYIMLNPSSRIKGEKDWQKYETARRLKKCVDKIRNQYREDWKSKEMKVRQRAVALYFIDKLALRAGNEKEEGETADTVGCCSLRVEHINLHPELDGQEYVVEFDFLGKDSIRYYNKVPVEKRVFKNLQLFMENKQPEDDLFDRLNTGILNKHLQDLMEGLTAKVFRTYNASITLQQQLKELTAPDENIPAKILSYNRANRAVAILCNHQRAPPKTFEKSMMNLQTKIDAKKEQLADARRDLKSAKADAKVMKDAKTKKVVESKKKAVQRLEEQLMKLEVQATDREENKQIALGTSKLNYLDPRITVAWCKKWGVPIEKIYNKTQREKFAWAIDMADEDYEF
The experiment in a line: Topoisomerase I-mediated single strand DNA break induction (in vitro). It is filed as biochemical. The following applies: median effect concentration for inducing single-strand breaks in the DNA substrate; read-out: Topo I EC50. On the procedure: Topoisomerase I activity was measured as described below. The procedure for assaying compound-induced, topoisomerase I-mediated single strand breaks in DNA was essentially that described by Hsiang, et al., (J. Biol. Chem. 1985, 260, 14873-14878). Samples dissolved in 100% DMSO as either […] or 10 mg/ml solutions, unless otherwise stated, were diluted in Tris-EDTA buffer. Marine bacteriophage PM2 DNA (Boehringer Mannheim) was also diluted in Tris-EDTA buffer to a concentration of 0.02 μg/μl. Different dilutions of the compound being evaluated were mixed with diluted DNA and this mixture was added to […] (one unit of enzyme activity is defined as the amount capable of relaxing 100 ng of supercoiled DNA in approximately 30 minutes at 37° C.) aliquots of purified human topoisomerase I (Topogen) in 2X reaction buffer to start the reaction. The compound-DNA-enzyme mixture was incubated for 30 minutes at 37° C. before stopping the reaction with warm stop buffer containing sodium dodecyl sulfate and proteinase K (Sigma). These mixtures were allowed to incubate at 37° C. for another 10 minutes, at which time the mixtures were removed from the waterbath and extracted with a 24:1 mixture of chloroform/isoamyl alcohol. Following centrifugation, aliquots of the aqueous phases were placed in wells of a 0.9% agarose (SeaKem) gel in Tris-borate buffer containing 0.5 μg/ml of ethidium bromide and subjected to electrophoresis for 15 hours to separate the different topological isomers and nicked and broken DNAs. After destaining the gel in water, the ethidium bromide stained DNA reaction products were visualized by exposing the gel to UV irradiation. Negatives of the photographs of the irradiated gels were scanned with a densitometer and areas under the peaks were calculated in order to obtain percent single strand DNA break formation for each sample. A median effective concentration (EC50) was obtained for each compound by interpolation between points of the resulting dose-effect curve which defines the potency of the compound for its effect in inducing topoisomerase I-mediated single strand breaks in DNA. The topoisomerase I activities for certain compounds of the present invention are shown below in Table I.

Data set [4] deals with HT-29 colon carcinoma. The experiment in a line: In vivo antitumor activity, HT-29 xenograft. Details: species or system Balb/c athymic (nude) female mice. On the procedure: Compounds: Examples of this invention were administered in an appropriate vehicle such as cremophor/ethanol/water (10%/10%/80%), in normal saline, water/carboxymethylcellulose vehicle.
All compounds were tested at several dose levels, with attempts each time to achieve their maximum tolerated dose (MTD). […] The optimal dose (OD) was the dose producing the best therapeutic effect, and was usually, but not always, synonymous with the MTD.
Tumors: Human tumors (HCT-116 and HT-29 colon carcinomas) were grown as xenografts in Balb/c athymic (nude) female mice. Antitumor assays. All tumors were implanted subcutaneously (sc) as 3-4mm fragments using a 13 gauge trochar. There were generally eight mice per treatment and control group. When treatment was delayed until tumors had obtained a certain size (weight), referred to as a staged tumor experiment (expt.), tumor-bearing mice were selected so that their tumors fell within a limited range of sizes for the particular expt.
Tumors were measured by calipers, and tumor weight calculated by the formula length (mm) times (×) width (mm)^2/2=tumor weight (mg). The median time (in days) to reach a predetermined tumor target size (for example, 500 mg) for untreated, control (C) mice relative to the time to reach the same target size for treated (T) mice, was calculated as a T-C value. T-C values were divided by the tumor volume doubling time (TVDT), and multiplied by 3.32, to yield a gross log cell kill (LCK) value, [i.e., (T-C)/TVDT×3.32=LCK].
A mouse was considered cured if there was no palpable tumor after a period of time equal to 10×TVDT post-reatment (Rx).

For data set [5], the system named is P388/CPT45 cells. The following applies: P388/CPT45 versus parental P388; cited from earlier work.

pEC50, pIC50: −log10 of the molar value.

Consider `O=C1NC(=O)c2c1c1c3cc(F)c(F)cc3[nH]c1c1c2c2cc(F)c(F)cc2n1[C@@H]1O[C@H](CO)[C@@H](F)[C@H](O)[C@H]1O` [Example 28, 12-[4-Deoxy-4-fluoro-β-D-glucopyranosyl]-2,3,9,10-tetrafluoro-12,13-dihydro-5H-indolo[2,3-a]pyrrolo[3,4-c]carbazole-5,7(6H)-dione], for which the “Selectivity Index R/S” value in data set [1] was 499.2. The pIC50 in data set [2] is 8.40. The pEC50 in data set [3] was 7.30.
On to `O=C1NC(=O)c2c1c1c3cc(F)c(F)cc3sc1c1c2c2cc(F)c(F)cc2n1[C@@H]1O[C@H](CO)C(F)(F)[C@H](O)[C@H]1O` [Example 30, 12-[4,4-Difluoro-4-deoxy-β-D-glucopyranosyl]-2,3,9,10-tetrafluoro-5H, 13H-benzo[b]thienyl[2,3-a]pyrrolo[3,4c]carbazole-5,7(6H)-dione], for which the “Selectivity Index R/S” value in data set [1] was 575.5. Also, the negative-log EC50 (pEC50) in data set [3] is 8.00. In data set [4] (HT29 sc xenograft in nude mice, at optimal or maximum tolerated dose, CPT-11 run as comparator in same experiment), the “LCK (gross log cell kill)” value is reported as over 1.4. In data set [4] (HT29 xenograft experiment, nude mice), the “MTD (optimal or maximum tolerated dose level tested)” value came out at 16 mpkpi.
Consider `O=C1NC(=O)c2c1c1c3cc(F)ccc3[nH]c1c1c2c2cc(F)ccc2n1[C@@H]1O[C@H](CO)C[C@H](O)[C@H]1O` [Example 31, 12-[4-Deoxy-β-D-glucopyranosyl]-3,9-difluoro-12,13-dihydro-5H-indolo[2,3-a]pyrrolo[3,4-c]carbazole-5,7(6H)-dione], for which the “Selectivity Index R/S” value in data set [1] stood at 720.7. For the same compound, the pIC50 in data set [2] was 8.40. Further, in data set [3], the pEC50 is 7.10.
In the same order, the values of `O=C1NC(=O)c2c1c1c3cc(F)ccc3sc1c1c2c2cc(F)ccc2n1[C@@H]1O[C@H](CSc2nccc(O)n2)[C@@H](O)[C@H](O)[C@H]1O` [Example 35] are under 1.0, under 5.11 and 6.62.
Regarding `NC[C@H]1O[C@@H](n2c3ccc(F)cc3c3c4c(c5c6ccccc6sc5c32)C(=O)NC4=O)[C@H](O)[C@@H](O)[C@@H]1O` [Example 36], the “Selectivity Index R/S” value in data set [1] is reported as under 1.1. Moreover, in data set [2], the pIC50 is 5.05. The pEC50 in data set [3] is 6.74.
As to `O=C1NC(=O)c2c1c1c3ccc(F)cc3[nH]c1c1c2c2ccc(F)cc2n1[C@@H]1O[C@H](CO)[C@@H](O)[C@H](O)[C@H]1O` [Example 37], the “Selectivity Index R/S” value in data set [1] is given as 8.7. Moreover, in data set [2], the pIC50 is 6.59. The pEC50 in data set [3] is 6.62.
In the same order, the values of `O=C1NC(=O)c2c1c1c3cc(F)ccc3[nH]c1c1c2c2cc(F)ccc2n1[C@H]1O[C@H](CF)[C@@H](O)[C@H](O)[C@H]1O` [Example 39] are 5.0, 6.63 and 7.00.
Take `NC[C@@H]1C[C@H](O)[C@@H](O)[C@H](n2c3ccc(F)cc3c3c4c(c5c6cc(F)ccc6[nH]c5c32)C(=O)NC4=O)O1` [Example 41]: in data set [1], the “Selectivity Index R/S” value was 27.3. In addition, the pIC50 in data set [2] was 7.14. For the same compound, the pEC50 in data set [3] is 7.70.
Turning to `CC[C@@]1(O)C(=O)OCc2c1cc1n(c2=O)Cc2cc3ccccc3nc2-1` [camptothecin], the “fold resistance of P388/CPT45 subline” value in data set [5] is on record as “over 1000 fold”.

A word on the pIC50: it is the IC50 on a negative log10 scale, so that one unit is a factor of ten. For orientation: pEC50 means the EC50 on a negative log10 scale, so that one unit is a factor of ten.
